The text below walks through data of patent publication US6369061B1, “Therapeutic agent for spinal canal stenosis” (Mitsubishi Pharma Corporation, priority 1998, dated 2002).

This test relates to rabbit acute spinal canal stenosis model. The test is described as follows: Rabbit cauda equina nerve graded constriction model as rabbit acute spinal canal stenosis model (nerve conduction velocity, tissue blood flow, tissue oxygen tension). It counts as in vivo. The settings on record: for Cauda equina nerve conduction velocity / Cauda equina nerve tissue blood flow / Cauda equina nerve tissue oxygen tension: measured 8 days after model preparation, mean ± standard error. The method, then: Effects of compound A on cauda equina nerve conduction velocity, cauda equina nerve tissue blood flow and variation in cauda equina nerve tissue oxygen tension in a rabbit acute spinal canal stenosis model
(1) Preparation of the Rabbit Cauda Equina Nerve Graded Constriction Model as Rabbit Acute Spinal Canal Stenosis Model Male Japanese white rabbits were fixed at the abdominal position under anesthesia by an intravenous injection of pentobarbital sodium (25 mg/kg, DAINIPPON PHARMACEUTICAL CO., LTD.) and the vertebral arch of the fifth lumbar vertebra was removed under a microscope (OLYMPUS OME) observation to expose cauda equina nerve. After the cauda equina nerve fascicle was gently ligated at one site together with a 26 G injection needle using a catgut suture (chromic catgut (thread 4-0, needle 12.9 mm), Johnson and Johnson), the injection needle was pulled out, and the dissected portion was sutured. In the sham operation group, the cauda equina nerve was only exposed and the dissected portion was sutured.
The rabbits were grouped in turn into a sham operation group (6 rabbits), a solvent group (6 rabbits), a compound A (3 mg/kg) administration group (6 rabbits), a compound A (10 mg/kg) administration group (6 rabbits), a compound A (30 mg/kg) administration group (6 rabbits), and a cilostazol (300 mg/kg, the same anti-platelet drug as compound A as a control drug, Otsuka Pharmaceutical Co., Ltd.) administration group (6 rabbits).
The drug was prepared into the volume of 5 mL/kg by suspending in 0.5% methylcellulose solution, and orally administered repeatedly once a day for 7 consecutive days from the next day of the model preparation. The 0.5% methylcellulose solution (5 mL/kg) was administered in the same manner to the solvent group. Nothing was administered to the sham operation group.
The next day of the final administration (8 days after model animals preparation), the model animals were anesthetized by an intravenous injection of pentobarbital sodium (25 mg/kg) and, after insertion of a tracheal catheter, fixed at the abdominal position. The rabbits were connected to a ventilator (45 times/min) and given pancuronium bromide (0.08 mg/kg, Sankyo Co., Ltd.) by an intravenous administration. The cauda equina nerve tissue blood flow in the downstream portion of the ligation site was measured transdurally using a laser blood flowmeter [ADVANCED LASER FLOWMETER, ALF2100, Advance] under the microscope observation. The cauda equina nerve tissue oxygen tension was measured at the same site using a pO2 monitor (model POG-201, Unique Medical Co. Ltd.). The cauda equina nerve conduction velocity was obtained by deriving the action potential induced by a spinal electric stimulus in the upper point and lower point of the ligation site and dividing the distance between the both points by the difference in the rise latent time (SIGNAL PROCESSOR, San-ei).
The obtained results are shown in mean±standard error. Using SAS (Statistical Analysis System), the following statistical analysis was performed. The sham operation group and the solvent group were compared by the Student's t-test. The effect of the drug was verified by the Dunnett's method to the solvent group as a control. In both tests, p<0.05 was taken as statistically significant.

The mark [1] stands for this setting: 300 mg/kg p.o. once a day for 7 days.
Where [2] appears, read: 300 mg/kg p.o., vs. solvent group.
[3] abbreviates: 3 mg/kg p.o. once a day for 7 days.
The mark [4] stands for this setting: 10 mg/kg p.o. once a day for 7 days.
Where [5] appears, read: 30 mg/kg p.o. once a day for 7 days.

`O=C1CCc2cc(OCCCCc3nnnn3C3CCCCC3)ccc2N1` [Cilostazol, cilostazol, reference compound]: under setting [1], the “Cauda equina nerve conduction velocity” value amounted to 14.585 ± 2.606 cm/ms, the “Cauda equina nerve tissue blood flow” value is recorded as 21.88 ± 4.25 ml/min. 100 g tissue and the “Cauda equina nerve tissue oxygen tension” value is 33.7 ± 5.3 mmHg. Moreover, under setting [2], the “Effect on cauda equina nerve conduction velocity (in words)” value is “did not improve the velocity”, the “Effect on cauda equina nerve tissue blood flow (in words)” value is reported as “not improved” and the “Effect on cauda equina nerve tissue oxygen tension (in words)” value is on record as “did not show an increasing effect”.
With `Cl.O=c1[nH]nc(OCCCc2ccc(Cl)cc2)c(NCc2cccnc2)c1Br` [Compound A, 4-bromo-6-[3-(4-chlorophenyl)propoxy]-5-(3-pyridylmethylamino)-3(2H)-pyridazinone hydrochloride], under setting [3], the “Cauda equina nerve conduction velocity” value was 20.327 ± 4.871 cm/ms, the “Cauda equina nerve tissue blood flow” value is reported as 23.33 ± 4.59 ml/min. 100 g tissue and the “Cauda equina nerve tissue oxygen tension” value is 35.5 ± 5.6 mmHg. For the same molecule, under setting [4], the “Cauda equina nerve conduction velocity” value came to 22.838 ± 3.571 cm/ms, the “Cauda equina nerve tissue blood flow” value is given as 24.42 ± 2.70 ml/min. 100 g tissue and the “Cauda equina nerve tissue oxygen tension” value was determined as 42.8 ± 5.8 mmHg. Also, under setting [5], the “Cauda equina nerve conduction velocity” value was 27.098 ± 3.627 cm/ms, the “Cauda equina nerve tissue blood flow” value came to 33.67 ± 4.21 ml/min. 100 g tissue and the “Cauda equina nerve tissue oxygen tension” value turned out to be 49.8 ± 3.4 mmHg. Further, where the note is “30 mg/kg p.o., vs. solvent group”, the “Effect on cauda equina nerve tissue blood flow (in words)” value is recorded as “significantly increased”. Under “3, 10, 30 mg/kg p.o., vs. solvent group”, the “Effect on decrease in cauda equina nerve conduction velocity (in words)” value is “significantly lessened the decrease in a dose-dependent manner”. In addition, the “Effect on cauda equina nerve tissue oxygen tension (in words)” value (3, 10, 30 mg/kg p.o., vs. solvent group, significant at 30 mg/kg) is listed as “showed a dose-dependent increase”.
